The values below come from patent US9844534B2, “PKC delta inhibitors for use as therapeutics” (Faller & Williams Technology, LLC, priority 2012, dated 2017).

The target of one data set is T1, PKC alpha (Homo sapiens, UniProt P17252).
T1 construct: purchased Invitrogen
Nature of the data set: PKC kinase activity assay (Omnia Kinase Assay). The class given is biochemical. How it is done: PKC Kinase Activity Assays: Assays were carried out using recombinant PKC alpha or PKC gamma, (Invitrogen) and the Omnia® Kinase Assays (Invitrogen) with a “PKC kinase-specific” peptide substrate. Incorporation of a chelation-enhanced fluorophore (CHEF) results in an increase in fluorescence ex360/em485) upon phosphorylation. The kit was used according to the manufacturer's instructions.

The next data set concerns BON1 cells. Nature of the data set: Cell proliferation assay (MTT/MTS). The class given is cell-based, human. An excerpt:
(§1) Cell Lines: BON1, a human foregut (pancreatic) carcinoid tumor cell line (Parekh et al. 1994) was obtained from Kjell Oberg (Uppsala University, Sweden) through Dr. Evan Vosburgh. H727 cells, derived from a human bronchopulmonary carcinoid tumor (Schuller et al. 1987), were purchased from ATCC. The CNDT 2.5 cell line, initially described as a human midgut carcinoid tumor cell line (Van Buren et al. 2007), was provided by Dr. Lee Ellis, (MD Anderson Cancer Center). The provenance of this cell line is currently under review by the originator. BONI, H727, MCF10 and CNDT 2.5 cells were propagated in 10% FBS (Invitrogen); Dulbecco's Modification of Earle's Media/Hams F-12 50:50 media (Cellgro); 2 mM L-Glutamine (Invitrogen); 200 U Penicillin/ml; 200 μg Streptomycin/ml (Invitrogen); 10 ng/ml Nerve Growth Factor (Invitrogen); 1×MEM Non-Essential Amino Acids (Cellgro); 1×MEM Vitamin Solution (Cellgro); 1 mM Sodium Pyruvate; 0.015 M HEPES buffer (pH7.3) (American Bioanalytical).
(§2) Cell Proliferation Assays—Cell proliferation was assessed using an MTT [3-(4,5-dimethylthiazol-2-yl)-2,5-diphenyltetrazolium bromide] assay (Roche, Mannheim, Germany). The number of viable cells growing in a single well on a 96-well microtiter plate was estimated by adding 10 μl of MTT solution (5 mg/ml in phosphate-buffered saline [PBS]). After 4 h of incubation at 37° C., the stain is diluted with 100 μl of dimethyl sulfoxide. The optical densities are quantified at a test wavelength of 570 nm and a reference wavelength of 690 nm on a multiwell spectrophotometer. In some assays, MTS was used as substrate (Promega, Madison, Wis.), and the absorbance of the product was monitored at 490 nm.

The next data set concerns CNDT 2.5 cells. Nature of the data set: Cell proliferation assay (MTT/MTS). The class given is cell-based, human.
Description: as §1, §2

Data set [1] has as its system H727 cells. Nature of the data set: Cell proliferation assay (MTT/MTS). In kind it is cell-based, human.
Description: as §1, §2

In data set [2] the test system is H727 cells. Nature of the data set: Cytotoxicity assay (LDH release). The class given is cell-based, human. An excerpt: Briefly, total culture medium was cleared by centrifugation. For assay of released LDH, supernatants were collected.
The subject of data set [3] is H727 cells. Nature of the data set: Clonogenic assay. In kind it is cell-based, human. Particulars: H727, exposure 6-72 hr, replated without inhibitor. As to the method: Clonogenic Assays: 100,000 cells were seeded on 100 mm dishes 5 with 10 ml media per dish (Li et al. 2004). […] Cells were trypsinized; counted via Trypan Blue Exclusion Method in order to determine the number of live cells in the sample, and 500 live cells were seeded in triplicate onto 6 well plates. Cells were monitored for appropriate colony size and re-fed every three to four days. At Day 17, cells were stained with ethidium bromide (Guda et al. 2007) and counted using UVP LabWorks software.
LDH release assesses cytotoxic damage sufficient to compromise membrane integrity over a relatively short time-span. An alternative method, which assesses lethal, but not necessarily immediate, cumulative damage to the tumor cell is a clonogenic assay. In this assay, tumor cells which remain viable after exposure to the compound are tested for their ability to proliferate sufficiently over time to form colonies of tumor cells. H727 treated with vehicle or a PKC delta inhibitor at sub-optimal concentrations varying durations. After replating of viable cells in media without inhibitor, colony numbers were quantitated over time.

The next data set has as its target PKC delta (Homo sapiens, UniProt Q05655). Particulars: cultured cells, given as 'in vivo'; read-out: IC50, inhibition of PKC delta in cultured cells; cited from earlier work.
The next data set deals with PKC delta protein. Particulars: longer periods of exposure; no effect on levels of other PKC isozymes; cited from earlier work.
The test system of data set [4] is nontumorigenic murine or human cells. Particulars: same culture conditions; cited from earlier work.

PKC delta, sequence (Q05655 whole entry): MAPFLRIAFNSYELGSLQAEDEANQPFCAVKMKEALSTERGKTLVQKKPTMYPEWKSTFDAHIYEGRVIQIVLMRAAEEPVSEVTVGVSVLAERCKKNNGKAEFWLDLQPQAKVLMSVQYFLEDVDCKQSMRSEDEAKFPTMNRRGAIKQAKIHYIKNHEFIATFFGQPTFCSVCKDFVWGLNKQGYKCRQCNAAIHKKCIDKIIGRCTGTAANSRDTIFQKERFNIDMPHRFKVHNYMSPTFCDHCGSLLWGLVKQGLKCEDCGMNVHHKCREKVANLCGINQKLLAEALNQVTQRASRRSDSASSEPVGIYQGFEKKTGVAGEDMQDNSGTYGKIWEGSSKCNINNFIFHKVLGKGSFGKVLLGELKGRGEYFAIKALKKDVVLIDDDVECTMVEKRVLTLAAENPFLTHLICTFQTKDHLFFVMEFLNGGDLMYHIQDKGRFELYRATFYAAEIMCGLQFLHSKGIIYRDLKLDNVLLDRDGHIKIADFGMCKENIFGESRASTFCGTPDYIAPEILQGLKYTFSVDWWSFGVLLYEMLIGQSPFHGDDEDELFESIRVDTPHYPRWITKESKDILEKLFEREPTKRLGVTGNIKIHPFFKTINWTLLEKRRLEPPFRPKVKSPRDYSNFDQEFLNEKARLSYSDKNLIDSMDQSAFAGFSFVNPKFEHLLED

`CC(=O)c1c(O)c(C)c(O)c(Cc2c(O)c3c(c(C(=O)/C=C/c4ccccc4)c2O)OC(C)(C)C=C3)c1O` [rottlerin]: the IC50 against PKC alpha is > 50 µM; with BON1 cells (Homo sapiens, BON1, by 48 hrs, read-out: IC50, decrease in cell number), ~5 µM; in the data set on CNDT 2.5 cells (Homo sapiens, CNDT 2.5, by 48 hrs, read-out: IC50, decrease in cell number), ~5 µM; in the data set with H727 cells [1] (Homo sapiens, NCI-H727, H727, by 48 hrs, read-out: IC50, decrease in cell number) it was ~5 µM; on PKC delta, 5 µM. Also, the “reduction in relative cell numbers” value was “significant reduction in relative cell numbers” in the data set on BON1 cells (BON1, by 72 hrs, highest concentrations tested); “significant reduction in relative cell numbers” with CNDT 2.5 cells (CNDT 2.5, by 72 hrs, highest concentrations tested); “significant reduction in relative cell numbers” with H727 cells [1] (H727, by 72 hrs, highest concentrations tested). The “growth-inhibitory effect on long-term exposure” value in the data set with BON1 cells (BON1, sub-optimal concentration (10 μM), re-fed with inhibitor after 72 hr) was “growth-inhibitory effects persisted to 168 hr”; in the data set with CNDT 2.5 cells (CNDT, sub-optimal concentration (10 μM), re-fed with inhibitor after 72 hr), “growth-inhibitory effects persisted to 168 hr”. In the data set with BON1 cells (BON1, sub-optimal concentration, inhibitor washed out, growth assessed over next 72 hrs), the “duration of exposure needed to inhibit proliferation (washout)” value was “statistically significant by 24 hr of exposure”. Also, the “cytotoxicity as assessed by LDH release” value in the data set with H727 cells [2] (H727, 24, 48 and 72 hours) is “cytotoxicity increasing as a function of time and concentration”. Also, the “LDH release versus vehicle control, significance” value with H727 cells [2] (H727, p<0.003) is “reached significance by 24 hr of exposure”. In addition, the “effect on clonogenic capacity versus DMSO control” value in the data set with H727 cells [3] is “reached significance (p=0.0051) at 6 hr of exposure”. Further, in the data set with PKC delta protein, the “down-regulation of PKC delta protein in cells” value is reported as “significantly down-regulates PKC delta protein”. Moreover, the “effect on growth of nontumorigenic cells” value in data set [4] is recorded as “no significant effect on the growth”.
As for “PKC delta-specific siRNA: siRNA duplexes targeting PKC delta (SEQ ID NO 1 and 2), obtained from Qiagen (chain 1 GAUGAAGGAGGCGCUCAGTT; chain 2 GGCUGAGUUCUGGCUGGACTT; chemistry not given here)”, the effect on proliferation entry in the data set on BON1 cells (BON1, siRNA knockdown, MTS) is recorded as “profound inhibition of proliferation”; in the data set with CNDT 2.5 cells (CNDT, siRNA knockdown, MTS), “profound inhibition of proliferation”.
